Where a SMILES comes first, the peptide text is derived from it.
Columns and labels:
[1] = test system: 8 mm diameter defect in the rat parietal bones; experiment: rat calvaria defect model, bone bridging; type: in vivo; conditions: collagen sponge in defect, daily s.c. injections for 6 days, 28 days post-surgery, histology qualitative score; vs saline and AC-100
Description: AC-101, 102, and 103 were tested for their defect bridging activities as compared to AC-100.
As a next step, necessity of RGD integrin-binding motif (SEQ ID NO:42) and SGDG glycosaminoglycan attachment motif (SEQ ID NO:43) to the bone formation activities was examined by testing the selected peptides synthesized in EXAMPLE 1 in a rat calvaria defect model. In this model an 8 mm diameter defect is created in the rat parietal bones and a collagen sponge cut to size is inserted into the defect. The test article is soaked into the sponge. Sub-cutaneous injections are administered daily for 6 days post-surgery. After 28 days post-surgery the rats are euthanized and the calvariae collected. The degree of bone bridging was determined by histology analysis using a qualitative scoring system. The tested peptides were SEQ ID NO: 22, 23, and 24, which were also encoded as AC-101, AC-102, and AC-103, respectively.
AC-100 that includes both the RGD integrin-binding motif and the SGDG glycosaminoglycan attachment motif was used as a positive control at the optimal dose.

[2] = test system: osteochondral defect in goat stifle joint; conditions: in vivo
Description: In this study, the use of two different concentrations (See Table 1) of AC-100 in conjunction with a collagen sponge and a control with just the collagen sponge was implanted to evaluate the efficacy of AC-100 in repair of bone and cartilage (osteochondral) defects. The implants were intended to serve as an osteochondral allograft for cellular and matrix ingrowth. Efficacy to repair cartilage was assessed using gross and histological examination of the repair tissue. The primary objective was to determine whether AC-100 modifies and/or improves the healing of the osteochondral defect as compared to the study control group and the natural progression of historical controls using this model. This report describes the in vivo, gross and histological findings at the 12 and 24 weeks time points.
A single full-thickness chondral defects were created in the right hind leg stifle joint. The lesion site was located in the anterior medial femoral condyle. The basic surgical procedure was identical for all subjects. All surgeries were performed under strict asepsis. […]
Postoperative checks were made for any animal displaying signs of postoperative discomfort. […] All treatments were recorded in the appropriate study documentation. […]
Animals were humanely sacrificed at Day 84 (12 weeks) or Day 168 (24 weeks) postoperatively. Bodyweights were recorded immediately prior to sacrifice. […]

[3] = test system: human mesenchymal stem cells (hMSC); experiment: proliferation assay with human mesenchymal stem cells, tritiated thymidine incorporation; type: cell-based; conditions: as compared to the vehicle
Description: The peptide of SEQ ID NO:34 was tested for its proliferation activity on human mesenchymal stem cells as compared to CMP-2 and IGF-1.
The same protocol and positive controls were used in this experiment.
SEQ ID NO:34 was selected for this experiment since the amino acid sequence of this peptide was derived from the corresponding region in rat and mouse MEPE where AC-100 was derived from human MEPE. Furthermore, as compared to all other known mammalian corresponding regions to AC-100, it is the least homologous to AC-100 (the human sequence).

Compound	degree of bone bridging [1]	proliferation activities of the hMSC by tritiated-thymidine incorporation [3]	also measured
TDLQEDGRNDISPFSGDGQPFKD [AC-101]	improved versus saline treatment alone and was comparable to the activity of AC-100	–	–
CC[C@H](C)[C@H](NC(=O)[C@H](CC(=O)O)NC(=O)[C@H](CC(N)=O)NC(=O)[C@H](CC(=O)O)NC(=O)CNC(=O)[C@H](CCCNC(=N)N)NC(=O)[C@H](CCC(=O)O)NC(=O)[C@H](CCC(N)=O)NC(=O)[C@H](CC(C)C)NC(=O)[C@H](CC(=O)O)NC(=O)[C@@H](N)[C@@H](C)O)C(=O)N[C@@H](CO)C(=O)N1CCC[C@H]1C(=O)N[C@@H](Cc1ccccc1)C(=O)N[C@@H](CO)C(=O)NCC(=O)N[C@@H](CC(=O)O)C(=O)NCC(=O)N[C@@H](CCC(N)=O)C(=O)N1CCC[C@H]1C(=O)N[C@@H](Cc1ccccc1)C(=O)N[C@@H](CCCCN)C(=O)N[C@@H](CC(=O)O)C(N)=O [AC-100] (H-TDLQERGDNDISPFSGDGQPFKD-NH2)	–	–	adverse events [2]: No adverse events were identified; inflammatory response in sections [2]: no evidence of an inflammatory response
TDLQEDGRNDISPFGDGSQPFKD [AC-103]	improved versus saline treatment alone and was comparable to the activity of AC-100	–	–
PDLLVRGDNDVPPFSGDGQHFMH [SEQ ID NO:34]	–	Significant proliferation activities	–
IGF-1: Insulin-like Growth Factor-1, positive control in hMSC proliferation assay	–	Significant proliferation activities	–
TDLQERGDNDISPFGDGSQPFKD [AC-102]	improved versus saline treatment alone and was comparable to the activity of AC-100	–	–
